In this experiment the target is T1, KRAS G12D (Homo sapiens, UniProt P01116, G12D).
T1 construct: made in house; host or cells: E. coli, e.g. BL21 (DE3)
Description: HTRF KRAS-SOS1 interaction assay, KRAS G12D. It is filed as biochemical. The note with it: binned ≤2 μM / >2 μM, read-out: Inhibition of KRAS G12D (IC50). The text has this:
This assay can be also used to assess a selective inhibition or reduction of signaling output of a mutant Ras protein relative to a wildtype, or relative to a different mutant Ras protein. For example, the equilibrium interaction of wildtype KRAS or K-Ras mutant (e.g., wildtype or a mutant thereof) with SOS1 (e.g., hSOS1) can be assessed as a proxy or an indication for the ability of a subject compound to bind and inhibit Ras protein. The HTRF assay detects from (i) a fluorescence resonance energy transfer (FRET) donor (e.g., antiGST-Europium) that is bound to GST-tagged K-Ras mutant to (ii) a FRET acceptor (e.g., anti-6His-XL665) bound to a His-tagged hSOS1.
The assay buffer can contain ˜5 mM HEPES pH 7.4, ˜150 mM NaCl, ˜1 mM DTT, 0.05% BSA and 0.0025% (v/v) Igepal. A Ras working solution is prepared in an assay buffer containing typically a suitable amount of the protein construct (e.g., GST-tagged K-Ras mutant) and the FRET donor (e.g., antiGST-Eu (K) from Cisbio, France). A SOS1 working solution is prepared in an assay buffer containing suitable amount of the protein construct (e.g., His-hSOS1) and the FRET acceptor (e.g., anti-6His-XL665 from Cisbio, France). A suitable amount of the protein construct will depend on the range of activity or range of IC50 values being detected or under investigation. For detecting an IC50 within a range of 500 nM, the protein constructs of the same range of molarity can be utilized.
A fixed volume of DMSO with or without test compound is transferred into a 384-well plate. Ras working solution is added to all wells of the test plate. SOS1 working solution is added to all wells except for those that are subsequently filled with inhibitor control solution. Upon incubation for about 10 minutes or longer, the fluorescence is measured with a M1000Pro plate reader (Tecan) using HTRF detection (excitation 337 nm, emission 1:620 nm, emission 2:665 nm). Compounds are tested in duplicate at different concentrations (for example, 10 μM, 2.5 μM, 0.63 μM, 0.16 μM, 0.04 μM, 0.01 μM test compound). The ratiometric data (i.e., emission 2 divided by emission 1) is used to calculate IC50 values against Ras using GraphPad Prism (GraphPad software). Signaling output measured in terms of IC50 values can be obtained and a ratio of IC50 against one mutant relative to another mutant can be calculated.
A general note: Time-resolved FRET reads energy transfer from a long-lived donor to a nearby acceptor.

T1 sequence (P01116 1-188 isoform P01116-2 G12D): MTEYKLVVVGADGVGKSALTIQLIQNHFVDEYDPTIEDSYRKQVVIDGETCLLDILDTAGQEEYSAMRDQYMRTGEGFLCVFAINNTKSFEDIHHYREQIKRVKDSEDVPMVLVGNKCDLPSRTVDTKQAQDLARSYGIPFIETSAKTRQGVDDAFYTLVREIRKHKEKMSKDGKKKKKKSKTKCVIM

Take `CCO/N=C1\CN2CCC[C@@]2(COc2nc3c4c(c(Cl)c(-c5ccc(F)c6sc(N)c(C#N)c56)c(F)c4n2)OCCN3[C@H](C)c2cccnc2N)C1` (single isomer, unassigned) [Compound 865]: the IC50 (commonly the concentration that inhibits the measured activity by half) was at most 2000 nM. As for `N#Cc1c(N)sc2c(F)ccc(-c3c(Cl)c4c5c(nc(OC[C@@]67CCCN6C[C@H](F)C7)nc5c3F)N(C(C=C(F)F)c3cccnc3N)CCO4)c12` (single isomer, unassigned) [Compound 712], the figure is at most 2000 nM; as for `N#Cc1c(N)sc2c(F)ccc(-c3c(C(F)(F)F)c4c5c(nc(OC[C@@]67CCCN6C[C@H](F)C7)nc5c3F)N([C@@H](c3cccnc3N)C(F)F)CCO4)c12` (single isomer, unassigned) [Compound 804], at most 2000 nM. As for `N#Cc1c(N)sc2c(F)ccc(-c3c(C(F)(F)F)c4c5c(nc(OC[C@@]67CCCN6C[C@H](F)C7)nc5c3F)N([C@H](CC3CCOCC3)c3cccnc3N)CCO4)c12` (single isomer, unassigned) [Compound 824], the figure is at most 2000 nM; as for `C[C@H](c1cccnc1N)N1CCOc2c(Cl)c(-c3cccc4sc(N)c(C#N)c34)c(F)c3nc(OC[C@@]45CCCN4C[C@H](F)C5)nc1c23` (single isomer, unassigned) [Compound 823], at most 2000 nM; as for `CCC(c1cccnc1N)N1CCOc2c(Cl)c(-c3ccc(F)c4sc(N)c(C#N)c34)c(F)c3nc(OC[C@@]45CCCN4C[C@H](F)C5)nc1c23` (mixture of isomers) [Compound 844, 2-amino-4-(4-(1-(2-aminopyridin-3-yl)propyl)-8-chloro-10-fluoro-2-(((2R,7aS)-2-fluorotetrahydro-1H-pyrrolizin-7a(5H)-yl)methoxy)-5,6-dihydro-4H-[1,4]oxazepino[5,6,7-de]quinazolin-9-yl)-7-fluorobenzo[b]thiophene-3-carbonitrile], at most 2000 nM. As for `C[C@H](c1cccnc1N)N1CCOc2c(Cl)c(-c3cccc4sc(N)c(C#N)c34)c(F)c3nc(OC[C@@]45CCCN4CC(=C(F)F)C5)nc1c23` (single isomer, unassigned) [Compound 688], the figure is at most 2000 nM; as for `C[C@H](c1cccnc1N)N1CCOc2c(Cl)c(-c3ccc(F)c4sc(N)c(C#N)c34)c(F)c3nc(OCC45CCCN4C[C@H](OCCCP(C)(C)=O)C5)nc1c23` (single isomer, unassigned) [Compound 857], at most 2000 nM; as for `N#Cc1c(N)sc2c(F)ccc(-c3c(C(F)(F)F)c4c5c(nc(OC[C@@]67CCCN6C[C@H](F)C7)nc5c3F)N([C@H](CCN3CCOCC3)c3cccnc3N)CCO4)c12` (single isomer, unassigned) [Compound 735], at most 2000 nM. With `N#Cc1c(N)sc2c(F)ccc(-c3c(Cl)c4c5c(nc(OC[C@@]67CCCN6C[C@H](F)C7)nc5c3F)N(C(/C=C\C(F)(F)F)c3cccnc3N)CCO4)c12` (single isomer, unassigned) [Compound 872], the 50% inhibitory concentration (IC50) was at most 2000 nM.

On to `C=Cc1c(-c2ccc(F)c3sc(N)c(C#N)c23)c(F)c2nc(OC[C@@]34CCCN3C[C@H](F)C4)nc3c2c1OCCN3[C@H](C)c1cccnc1N` (single isomer, unassigned) [Compound 787], for which the IC50 is at most 2000 nM. To `CC(c1cncnc1N)N1CCOc2c(Cl)c(-c3ccc(F)c4sc(N)c(C#N)c34)c(F)c3nc(OC[C@@]45CCCN4C[C@H](F)C5)nc1c23` (single isomer, unassigned) [Compound 699] belongs at most 2000 nM; to `C[C@@H]1CN(CC2(COc3nc4c5c(c(C(F)(F)F)c(-c6ccc(F)c7sc(N)c(C#N)c67)c(F)c5n3)OCCN4[C@H](C)c3cccnc3N)CC2)C[C@H](C)O1` [Compound 886, 2-amino-4-(4-((R)-1-(2-aminopyridin-3-yl)ethyl)-2-((1-(((2S,6R)-2,6-dimethylmorpholino)methyl)cyclopropyl)methoxy)-10-fluoro-8-(trifluoromethyl)-5,6-dihydro-4H-[1,4]oxazepino[5,6,7-de]quinazolin-9-yl)-7-fluorobenzo[b]thiophene-3-carbonitrile], at most 2000 nM.

Take `N#Cc1c(N)sc2c(F)ccc(-c3c(C(F)(F)F)c4c5c(nc(OC[C@@]67CCCN6C[C@H](F)C7)nc5c3F)N([C@H](CCC3CC(F)(F)C3)c3cccnc3N)CCO4)c12` (single isomer, unassigned) [Compound 724]: the concentration for half-maximal inhibition (IC50) is at most 2000 nM. As for `CC(c1cccnc1N)N1c2nc(OC[C@@]34CCCN3C[C@H](F)C4)nc3c(F)c(-c4ccc(F)c5sc(N)c(C#N)c45)c(Cl)c(c23)OC[C@@H]1CC#N` (mixture of isomers) [Compound 716, 2-amino-4-((5S)-4-(1-(2-aminopyridin-3-yl)ethyl)-8-chloro-5-(cyanomethyl)-10-fluoro-2-(((2R,7aS)-2-fluorotetrahydro-1H-pyrrolizin-7a(5H)-yl)methoxy)-5,6-dihydro-4H-[1,4]oxazepino[5,6,7-de]quinazolin-9-yl)-7-fluorobenzo[b]thiophene-3-carbonitrile], the figure is at most 2000 nM. As for `CO/N=C1\CN2CCC[C@@]2(COc2nc3c4c(c(Cl)c(-c5ccc(F)c6sc(N)c(C#N)c56)c(F)c4n2)OCCN3[C@H](C)c2cccnc2N)C1` (single isomer, unassigned) [Compound 898], the figure is at most 2000 nM; as for `C#C[C@H]1COc2c(Cl)c(-c3ccc(F)c4sc(N)c(C#N)c34)c(F)c3nc(OC[C@@]45CCCN4C[C@H](F)C5)nc(c23)N1C(C)c1cccnc1N` (single isomer, unassigned) [Compound 729], at most 2000 nM; as for `Cc1cnc(N)c([C@@H](C)N2CCOc3c(C(F)(F)F)c(-c4ccc(F)c5sc(N)c(C#N)c45)c(F)c4nc(OC[C@@]56CCCN5C[C@H](F)C6)nc2c34)n1` (single isomer, unassigned) [Compound 767], at most 2000 nM.

As for `C[C@H](c1ccc(F)nc1N)N1CCOc2c(C(F)(F)F)c(-c3ccc(F)c4sc(N)c(C#N)c34)c(F)c3nc(OC[C@@]45CCCN4C[C@H](F)C5)nc1c23` (single isomer, unassigned) [Compound 726], the IC50 is at most 2000 nM. Consider `C[C@H](c1cccnc1N)N1CCOc2c(C(F)(F)F)c(-c3cccc4sc(N)c(C#N)c34)c(F)c3nc(OC[C@@]45CCCN4C[C@H](F)C5)nc1c23` (single isomer, unassigned) [Compound 791], for which the half-inhibitory concentration (IC50) was at most 2000 nM. As for `CP(C)(=O)CC[C@H](c1cccnc1N)N1CCOc2c(C(F)(F)F)c(-c3ccc(F)c4sc(N)c(C#N)c34)c(F)c3nc(OC[C@@]45CCCN4C[C@H](F)C5)nc1c23` (single isomer, unassigned) [Compound 891], the figure is at most 2000 nM; as for `N#Cc1c(N)sc2c(F)ccc(-c3c(C(F)(F)F)c4c5c(nc(OC[C@@]67CCCN6C[C@H](F)C7)nc5c3F)N([C@H](CC3CC(F)(F)C3)c3cccnc3N)CCO4)c12` (single isomer, unassigned) [Compound 703], at most 2000 nM; as for `N#Cc1c(N)sc2c(F)ccc(-c3c(Cl)c4c5c(nc(OC[C@@]67CCCN6C[C@H](F)C7)nc5c3F)N(C(CC(F)F)c3cccnc3N)CCO4)c12` (mixture of isomers) [Compound 776, 2-amino-4-(4-(1-(2-aminopyridin-3-yl)-3,3-difluoropropyl)-8-chloro-10-fluoro-2-(((2R,7aS)-2-fluorotetrahydro-1H-pyrrolizin-7a(5H)-yl)methoxy)-5,6-dihydro-4H-[1,4]oxazepino[5,6,7-de]quinazolin-9-yl)-7-fluorobenzo[b]thiophene-3-carbonitrile], at most 2000 nM.

These data come from patent US12668600B2 (Kumquat Biosciences Inc., priority 2023, dated 2026).
